Measurements as given in patent publication EP1674110A1, “Inhibition of bradykinin release” (priority 1999, dated 2000).

How the values were obtained:
[1] = target: HBP (heparin-binding protein, CAP37); details: lipid A component of LPS and endotoxin binding to HBP; read-out: Kass (converted); cited from earlier work
BAEC monolayers = assay: EC intracellular free Ca2+ (fluo-3) after CD18 cross-linking of PMNs; type: cell-based, bovine; details: endothelial cells pre-treated with BAPTA AM; concentration not given
Protocol: The Ca^2+ sensitive fluorescent probe fluo-3/AM (Molecular Probes Europe BV, Leiden, The Netherlands) is used for determination of changes in EC intracellular free Ca^2+. Confluent BAEC monolayers on filters are incubated for 30 min at 37°C with fluo-3/AM (3µM in HBSS containing 2% FCS and 10 mM HEPES) added to both the apical and basolateral surface. The monolayers are washed three times and incubated with fresh HBSS in the dark for 20 min at room temperature to allow complete hydrolysis of the dye ester. Anti-CD18 or anti-L-selectin mAb treated PMNs are added to ECs and receptor cross-linking is induced with secondary mAb as described above. In separate experiments, PMN secretion containing medium (see above) is used to stimulate ECs in the absence of PMNs. Changes in EC [Ca^2+]i in response to these stimuli are measured through continuous registration of fluorescence intensity with a laser-scanning confocal imaging system (Insight Plus; Meridian Instruments Inc., Okemon, Michigan).
Monolayers of endothelial cells are labelled with the Ca^2+-sensitive fluorophore fluo-3, and stimulus-induced changes in EC [Ca^2+]i monitored by confocal laser scanning microscopy. Adding anti-CD18 treated PMNs to the EC monolayer caused no change in EC [Ca^2+]. […]

[2] = test system: endothelial cells (HUVEC or BAEC); assay: Transendothelial electrical resistance (TEER) after CD18 cross-linking of PMNs; type: cell-based; details: endothelial cells pre-treated with BAPTA AM; concentration not given
Protocol: Human umbilical vein endothelial cells (HUVEC) and bovine aorta endothelial cells (BAEC) are isolated and cultured as previously described (Gautam et al. 1998, Brit. J. Pharm. 125:1109-1114). HUVEC or BAEC in the first to fifth passages are detached by brief (2 min) trypsin-EDTA treatment (0.25% trypsin/0.01 % EDTA) and replated onto either 0.2 µm pore size Anopore inorganic membrane or 3.0 µm pore size polycarbonate filters (Tissue Culture inserts, 10 mm; NUNC, Roskilde, Denmark). In order to promote cellular differentiation and enhance attachment of endothelial cells (ECs), the filters are pretreated with 50 µl Biomatrix I (167 µg/ml) and air-dried. […] The EC are grown to confluent monolayers, as assessed by daily microscopic observation and measurement of the electrical resistance across the monolayer (Gautam et al. 1998, Brit. J. Pharm. 125:1109-1114).
Two different approaches are used for assessment of stimulation-induced changes in EC permeability. […] Electrical resistance across the EC monolayer is measured at 37°C with electrodes in each compartment exactly positioned in relation to each other and to the monolayer. The electrical resistance of individual EC monolayers is obtained by subtracting the resistance of the corresponding naked filter coated with Biomatrix as measured prior to seeding of the endothelial cells. […]

Compound	Kd [1] [nM]	rise in EC free intracellular Ca^2+ in response to CD18 cross-linking (BAEC monolayers)	change in TEER in response to CD18 cross-linking [2]
lipid A	1.25		
CC(=O)OCOC(=O)CN(CC(=O)OCOC(C)=O)c1ccccc1OCCOc1ccccc1N(CC(=O)OCOC(C)=O)CC(=O)OCOC(C)=O [BAPTA AM]		completely inhibited	completely inhibited
